Assay results as given in ChEMBL document CHEMBL1149245 (J Med Chem, 2004).
The source made the active and inactive calls. The rule behind the calls is not given here.

Tests used:
[1] = target: T1, Alpha-2C adrenergic receptor (Homo sapiens, UniProt P18825); assay: Displacement of [3H]RX821002 from human adrenergic Alpha-2C receptor expressed in CHO cells; type: cell-based
T1 sequence (P18825 whole entry): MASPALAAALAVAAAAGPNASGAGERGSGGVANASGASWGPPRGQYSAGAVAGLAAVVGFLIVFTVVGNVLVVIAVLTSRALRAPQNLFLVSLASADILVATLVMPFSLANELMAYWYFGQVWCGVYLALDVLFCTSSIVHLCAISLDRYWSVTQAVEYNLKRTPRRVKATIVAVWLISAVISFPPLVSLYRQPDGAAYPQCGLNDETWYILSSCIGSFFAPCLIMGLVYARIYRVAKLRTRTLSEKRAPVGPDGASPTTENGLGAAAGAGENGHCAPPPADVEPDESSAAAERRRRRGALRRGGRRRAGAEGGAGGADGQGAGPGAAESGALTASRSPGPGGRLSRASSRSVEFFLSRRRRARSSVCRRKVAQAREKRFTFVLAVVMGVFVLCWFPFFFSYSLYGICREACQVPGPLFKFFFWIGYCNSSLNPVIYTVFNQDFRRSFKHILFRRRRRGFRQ

[2] = target: T2, Alpha-2B adrenergic receptor (Homo sapiens, UniProt P18089); assay: Displacement of [3H]RX821002 from human adrenergic alpha-2B receptor expressed in CHO cells; type: cell-based
T2 sequence (P18089 whole entry): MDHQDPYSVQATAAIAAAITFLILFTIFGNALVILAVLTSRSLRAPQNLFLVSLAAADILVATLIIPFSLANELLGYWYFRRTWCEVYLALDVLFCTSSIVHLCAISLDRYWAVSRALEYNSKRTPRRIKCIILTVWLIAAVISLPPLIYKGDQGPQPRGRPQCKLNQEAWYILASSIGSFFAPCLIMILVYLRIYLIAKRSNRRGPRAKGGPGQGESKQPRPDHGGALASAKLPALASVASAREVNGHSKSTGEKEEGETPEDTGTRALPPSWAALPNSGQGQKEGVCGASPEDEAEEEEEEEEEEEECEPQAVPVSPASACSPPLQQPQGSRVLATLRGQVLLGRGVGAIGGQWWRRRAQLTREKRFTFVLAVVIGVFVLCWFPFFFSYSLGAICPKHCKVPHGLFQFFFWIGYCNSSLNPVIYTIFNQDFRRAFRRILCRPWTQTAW

[3] = target: T3, Alpha-2A adrenergic receptor (Homo sapiens, UniProt P08913); assay: Displacement of [3H]RX821002 from human adrenergic alpha2A receptor expressed in CHO cells; type: cell-based
T3 sequence (P08913 whole entry): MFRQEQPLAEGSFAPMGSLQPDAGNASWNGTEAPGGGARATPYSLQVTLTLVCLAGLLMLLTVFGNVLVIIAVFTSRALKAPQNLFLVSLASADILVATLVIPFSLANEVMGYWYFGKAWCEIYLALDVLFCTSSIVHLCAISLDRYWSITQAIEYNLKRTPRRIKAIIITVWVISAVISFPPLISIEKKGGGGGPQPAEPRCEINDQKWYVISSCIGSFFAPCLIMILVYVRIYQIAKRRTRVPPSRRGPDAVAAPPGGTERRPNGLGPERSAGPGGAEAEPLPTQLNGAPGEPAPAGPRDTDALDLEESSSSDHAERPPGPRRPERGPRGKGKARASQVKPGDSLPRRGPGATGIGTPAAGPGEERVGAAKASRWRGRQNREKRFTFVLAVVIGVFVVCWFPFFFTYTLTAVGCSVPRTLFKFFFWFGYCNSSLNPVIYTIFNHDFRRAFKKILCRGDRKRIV

[4] = target: T1, Alpha-2C adrenergic receptor; type: functional, cell-based, CHO
Description: Agonist activity at human adrenergic alpha-2C receptor expressed in CHO cells assessed as extracellular acidification by cytosensor microphysiometry

[5] = target: T2, Alpha-2B adrenergic receptor; assay: Agonist activity at human adrenergic alpha-2B receptor expressed in CHO cells assessed as extracellular acidification by cytosensor microphysiometry; type: functional, cell-based
[6] = target: T3, Alpha-2A adrenergic receptor; type: functional, cell-based, CHO
Description: Agonist activity at human adrenergic alpha-2A receptor expressed in CHO cells assessed as extracellular acidification by cytosensor microphysiometry

[7] = target: T4, Alpha-2A adrenergic receptor (Homo sapiens) (UniProt P08913); assay: (§1) Agonist activity at human adrenergic alpha-2A receptor expressed in CHO cells assessed as inhibition of forskolin-induced cAMP accumulation; type: functional, cell-based
T4 sequence (whole entry): T3 sequence (P08913 whole entry)

[8] = target: T5, Alpha-2C adrenergic receptor (Homo sapiens) (UniProt P18825); assay: (§2) Agonist activity at human adrenergic Alpha-2C receptor expressed in CHO cells assessed as inhibition of forskolin-induced cAMP accumulation; type: functional, cell-based
T5 sequence (whole entry): T1 sequence (P18825 whole entry)

[9] = target: T1, Alpha-2C adrenergic receptor; assay: as §2; type: functional, cell-based
Nischarin = Nischarin (Homo sapiens, UniProt Q9Y2I1); assay: Binding affinity to imidazoline receptor 1
Sequence of Nischarin (Q9Y2I1 whole entry): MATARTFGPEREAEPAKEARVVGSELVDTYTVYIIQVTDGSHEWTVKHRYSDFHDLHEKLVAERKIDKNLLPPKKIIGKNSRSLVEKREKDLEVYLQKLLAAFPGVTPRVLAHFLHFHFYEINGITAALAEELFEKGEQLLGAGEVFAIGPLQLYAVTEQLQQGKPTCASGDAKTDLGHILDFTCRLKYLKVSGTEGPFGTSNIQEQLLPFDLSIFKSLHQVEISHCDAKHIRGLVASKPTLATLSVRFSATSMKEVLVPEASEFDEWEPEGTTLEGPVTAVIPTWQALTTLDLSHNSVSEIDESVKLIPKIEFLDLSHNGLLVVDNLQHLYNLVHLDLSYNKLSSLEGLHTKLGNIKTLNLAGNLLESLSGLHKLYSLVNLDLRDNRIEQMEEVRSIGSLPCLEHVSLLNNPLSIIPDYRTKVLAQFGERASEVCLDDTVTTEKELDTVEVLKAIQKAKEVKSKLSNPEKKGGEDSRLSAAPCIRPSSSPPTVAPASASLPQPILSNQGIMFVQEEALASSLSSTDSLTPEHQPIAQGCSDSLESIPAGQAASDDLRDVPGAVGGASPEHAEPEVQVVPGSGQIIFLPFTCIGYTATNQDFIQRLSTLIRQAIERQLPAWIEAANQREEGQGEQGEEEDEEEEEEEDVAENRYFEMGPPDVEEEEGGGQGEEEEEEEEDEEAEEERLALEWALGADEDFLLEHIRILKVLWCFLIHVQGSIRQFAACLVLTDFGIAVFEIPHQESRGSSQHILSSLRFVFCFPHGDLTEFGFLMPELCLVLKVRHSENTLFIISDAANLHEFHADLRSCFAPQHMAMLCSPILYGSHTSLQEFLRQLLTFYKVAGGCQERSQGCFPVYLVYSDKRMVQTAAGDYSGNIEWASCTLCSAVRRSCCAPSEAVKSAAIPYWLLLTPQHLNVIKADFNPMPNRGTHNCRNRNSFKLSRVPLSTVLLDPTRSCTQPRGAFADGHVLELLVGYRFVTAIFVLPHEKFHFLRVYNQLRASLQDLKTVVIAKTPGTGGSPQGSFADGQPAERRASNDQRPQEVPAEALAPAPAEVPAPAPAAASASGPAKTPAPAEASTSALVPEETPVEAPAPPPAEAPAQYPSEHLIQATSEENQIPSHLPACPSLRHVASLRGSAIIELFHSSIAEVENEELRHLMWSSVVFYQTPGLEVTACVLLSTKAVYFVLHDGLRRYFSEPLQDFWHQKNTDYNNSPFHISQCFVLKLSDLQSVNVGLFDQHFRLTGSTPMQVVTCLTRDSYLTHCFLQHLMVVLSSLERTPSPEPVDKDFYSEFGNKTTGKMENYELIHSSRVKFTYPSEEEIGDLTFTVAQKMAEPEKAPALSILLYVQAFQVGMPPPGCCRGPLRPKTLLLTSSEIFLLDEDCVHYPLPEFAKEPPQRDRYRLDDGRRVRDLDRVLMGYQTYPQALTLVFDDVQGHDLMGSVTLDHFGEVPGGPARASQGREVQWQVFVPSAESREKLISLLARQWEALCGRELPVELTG

[10] = target: T3, Alpha-2A adrenergic receptor; assay: as §1; type: functional, cell-based

Structure (SMILES) | Ki [1] | Ki [2] | Ki [3] | EC50 [4] | EC50 [5] | EC50 [6] | Activity [7] | Intrinsic activity [8] | EC50 [9] | Ki (Nischarin) | Intrinsic activity [7] | EC50 [10]
CC(Oc1ccccc1-c1ccncc1)C1=NCCN1 (stereo unspecified) | 1450 nM | 2690 nM | 282 nM |  |  |  |  |  |  |  |  | 
CC(Oc1ccccc1-c1cccc(O)c1)C1=NCCN1 (stereo unspecified) | 17.8 nM | 355 nM | 27.5 nM | 46.8 nM | 5250 nM |  |  |  |  |  |  | 
Cc1cccc(-c2ccccc2OC(C)C2=NCCN2)c1 (stereo unspecified) | 245 nM | 537 nM | 51.3 nM | 1580 nM |  |  |  |  |  |  |  | 
Cc1ccc(-c2ccccc2OC(C)C2=NCCN2)cc1 (stereo unspecified) | 251 nM | 398 nM | 41.7 nM | 832 nM |  |  |  |  |  |  |  | 
CC(Nc1ccccc1-c1ccccc1)C1=NCCN1 (stereo unspecified) | 708 nM | 1150 nM | 91.2 nM | 93.3 nM | 3800 nM | 389 nM |  |  |  |  |  | 
CC(Oc1ccccc1-c1ccccc1O)C1=NCCN1 (stereo unspecified) | 1620 nM | 1000 nM | 309 nM |  |  |  |  |  |  |  |  | 
CC(Sc1ccccc1-c1ccccc1)C1=NCCN1 (stereo unspecified) | 708 nM | 3550 nM | 339 nM |  |  |  |  |  |  |  |  | 
c1ccc(-c2ccccc2C2OC2C2=NCCN2)cc1 (cis isomer) | 6460 nM | 20000 nM | 1230 nM | 2690 nM |  | 3470 nM |  |  |  |  |  | 
CC(Oc1ccccc1-c1cccc([N+](=O)[O-])c1)C1=NCCN1 (stereo unspecified) | 234 nM | 661 nM | 60.3 nM | 100 nM |  |  | inactive | 0.6 | 158 nM |  |  | 
CC(Oc1ccccc1-c1cccs1)C1=NCCN1 (stereo unspecified) | 72.4 nM | 214 nM | 17 nM | 58.9 nM | 1000 nM | 41.7 nM |  |  |  |  |  | 
CC(Oc1ccccc1-c1ccccc1)C1=NCCO1 (stereo unspecified) | 5890 nM | 10000 nM | 8130 nM |  |  |  |  |  |  |  |  | 
CC(Oc1ccccc1-c1ccccc1)C1=NCCN1 (stereo unspecified) [BIPHENYLINE] | 200 nM | 501 nM | 47.9 nM | 57.5 nM | 646 nM | 115 nM |  |  |  | 126 nM |  | 
CC(Oc1ccccc1-c1ccccc1)C1=NCCS1 (stereo unspecified) | > 10000 nM | > 10000 nM | > 10000 nM |  |  |  |  |  |  |  |  | 
CC(Oc1ccccc1-c1ccccn1)C1=NCCN1 (stereo unspecified) | 1260 nM | 3310 nM | 1200 nM |  |  |  |  |  |  |  |  | 
CC(Oc1ccccc1-c1cccnc1)C1=NCCN1 (stereo unspecified) | 64.6 nM | 933 nM | 138 nM | 50.1 nM | 1000 nM | 316 nM |  | 1 | 39.8 nM |  | 0.5 | 589 nM
Cc1ccccc1-c1ccccc1OC(C)C1=NCCN1 (stereo unspecified) | 234 nM | 832 nM | 46.8 nM | 363 nM |  |  |  |  |  |  |  | 
CC(Oc1ccccc1-c1ccsc1)C1=NCCN1 (stereo unspecified) | 132 nM | 417 nM | 45.7 nM | 93.3 nM |  | 75.9 nM |  |  |  |  |  | 
c1ccc(-c2ccccc2C2OC2C2=NCCN2)cc1 (stereo unspecified) | 4270 nM | 1230 nM | 1510 nM |  |  |  |  |  |  |  |  | 
CC(Oc1ccccc1-c1ccccc1[N+](=O)[O-])C1=NCCN1 (stereo unspecified) | 1230 nM | 1550 nM | 174 nM |  |  |  |  |  |  |  |  | 
CC(Oc1ccccc1-c1ccc(O)cc1)C1=NCCN1 (stereo unspecified) | 331 nM | 813 nM | 33.9 nM |  |  |  |  |  |  |  |  | 
CC(Oc1ccccc1-c1ccccc1)C1=NCCC1 (stereo unspecified) | 5890 nM | 10000 nM | 8130 nM |  |  |  |  |  |  |  |  | 
CC(Oc1ccccc1-c1ccc([N+](=O)[O-])cc1)C1=NCCN1 (stereo unspecified) | 302 nM | 501 nM | 123 nM |  |  |  |  |  |  |  |  | 
CC(Oc1ccccc1-c1cccc(F)c1)C1=NCCN1 (stereo unspecified) | 17 nM | 269 nM | 14.8 nM | 60.3 nM |  | 105 nM |  |  |  |  |  | 
CC(Oc1ccccc1-c1cccc(N)c1)C1=NCCN1 (stereo unspecified) | 309 nM | 479 nM | 37.2 nM | 501 nM |  | 257 nM |  |  |  |  |  | 
